Read-outs that look alike come from different tables or passages of the source.
Tests used:
[1] = test system: NCI-H460, human non-small cell lung carcinoma cells; experiment: Proliferation assay, NCI-H460 (crystal violet); format: cell-based; settings: NCI-H460, 4 days, read-out: Inhibition of NCI-H460 cell proliferation IC50
Method: (§1) Cultivated tumour cells (HeLa, human cervical tumour cells, ATCC CCL-2; NCI-H460, human non-small cell lung carcinoma cells, ATCC HTB-177; A2780, human ovarian carcinoma cells, ECACC #93112519; DU 145, hormone-independent human prostate carcinoma cells, ATCC HTB-81; HeLa-MaTu-ADR, multidrug-resistant human cervical carcinoma cells, EPO-GmbH Berlin; Caco-2, human colorectal carcinoma cells, ATCC HTB-37; B16F10, mouse melanoma cells, ATCC CRL-6475) were plated at a density of 5,000 cells/well (DU145, HeLa-MaTu-ADR), 3,000 cells/well (NCI-H460, HeLa), 2,500 cells/well (A2780), 1,500 cells/well (Caco-2), or 1,000 cells/well (B16F10) in a 96-well multititer plate in 200 μL of their respective growth medium supplemented 10% fetal calf serum. After 24 hours, the cells of one plate (zero-point plate) were stained with crystal violet (see below), while the medium of the other plates was replaced by fresh culture medium (200 μl), to which the test substances were added in various concentrations (0 μM, as well as in the range of 0.001-10 μM; the final concentration of the solvent dimethyl sulfoxide was 0.5%). The cells were incubated for 4 days in the presence of test substances. Cell proliferation was determined by staining the cells with crystal violet: the cells were fixed by adding 20 μl/measuring point of an 11% glutaric aldehyde solution for 15 minutes at room temperature. After three washing cycles of the fixed cells with water, the plates were dried at room temperature. The cells were stained by adding 100 μl/measuring point of a 0.1% crystal violet solution (pH 3.0). After three washing cycles of the stained cells with water, the plates were dried at room temperature. The dye was dissolved by adding 100 μl/measuring point of a 10% acetic acid solution. The extinction was determined by photometry at a wavelength of 595 nm. The change of cell number, in percent, was calculated by normalization of the measured values to the extinction values of the zero-point plate (=0%) and the extinction of the untreated (0 μm) cells (=100%). The IC50 values (inhibitory concentration at 50% of maximal effect) were determined by means of a 4 parameter fit. Non-adherent MOLM-13 human acute myeloid leukemia cells (DSMZ ACC 554) were seeded at a density of 5,000 cells/well in a 96-well multititer plate in 100 μL of growth medium supplemented 10% fetal calf serum. After 24 hours, cell viability of one plate (zero-point plate) was determined with the Cell Titre-Glo Luminescent Cell Viability Assay (Promega), while 50 μL of test compound containing medium was added to the wells of the other plates (final concentrations in the range of 0.001-10 μM and DMSO controls; the final concentration of the solvent dimethyl sulfoxide was 0.5%). Cell viability was assessed after 72-hour exposure with the Cell Titre-Glo Luminescent Cell Viability Assay (Promega).

[2] = target: T1, CDK9/CycT1 (Homo sapiens, UniProt P50750); experiment: CDK9/CycT1 high ATP kinase assay (TR-FRET, 2 mM ATP); format: biochemical; settings: Method 1b
T1 construct: Recombinant full-length His-tagged human CDK9 and CycT1; His; purchased Invitrogen PV4131; host or cells: insect cells
T1 sequence (P50750 whole entry): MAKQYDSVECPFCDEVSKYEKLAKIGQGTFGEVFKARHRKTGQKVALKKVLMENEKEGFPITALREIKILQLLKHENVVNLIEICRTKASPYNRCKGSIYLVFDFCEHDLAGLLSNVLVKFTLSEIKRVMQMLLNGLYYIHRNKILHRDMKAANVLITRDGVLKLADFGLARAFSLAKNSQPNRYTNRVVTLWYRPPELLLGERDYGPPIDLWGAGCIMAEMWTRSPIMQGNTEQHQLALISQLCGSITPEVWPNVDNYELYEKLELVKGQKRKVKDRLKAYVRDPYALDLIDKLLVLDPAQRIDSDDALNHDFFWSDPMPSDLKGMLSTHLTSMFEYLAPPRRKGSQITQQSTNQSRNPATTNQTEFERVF
T1 sequence (O60563 whole entry partner): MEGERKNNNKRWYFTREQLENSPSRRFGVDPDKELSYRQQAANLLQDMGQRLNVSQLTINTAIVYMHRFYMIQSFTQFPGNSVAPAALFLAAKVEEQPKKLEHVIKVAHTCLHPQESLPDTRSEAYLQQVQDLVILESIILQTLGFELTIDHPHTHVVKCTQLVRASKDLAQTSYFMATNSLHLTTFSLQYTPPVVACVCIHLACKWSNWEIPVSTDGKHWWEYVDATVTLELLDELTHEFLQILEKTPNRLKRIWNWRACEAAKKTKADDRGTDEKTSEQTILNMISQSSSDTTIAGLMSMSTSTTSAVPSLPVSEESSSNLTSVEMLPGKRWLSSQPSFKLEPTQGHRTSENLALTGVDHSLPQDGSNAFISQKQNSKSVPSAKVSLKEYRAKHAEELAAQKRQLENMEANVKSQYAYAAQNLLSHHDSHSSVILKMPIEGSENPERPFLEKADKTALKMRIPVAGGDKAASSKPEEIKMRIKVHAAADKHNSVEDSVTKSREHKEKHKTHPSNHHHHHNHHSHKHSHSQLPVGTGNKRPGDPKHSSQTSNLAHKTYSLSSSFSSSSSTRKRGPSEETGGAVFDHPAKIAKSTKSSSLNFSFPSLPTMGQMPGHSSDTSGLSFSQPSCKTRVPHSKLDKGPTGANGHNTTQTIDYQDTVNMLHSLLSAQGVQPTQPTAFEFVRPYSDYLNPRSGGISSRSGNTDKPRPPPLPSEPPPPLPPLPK
Method: 1b. CDK9/CyeT1 High ATP Kinase Assay
CDK9/CycT1-inhibitory activity of compounds of the present invention at a high ATP concentration after preincubation of enzyme and test compounds was quantified employing the CDK9/CycT1 TR-FRET assay as described in the following paragraphs.
Recombinant full-length His-tagged human CDK9 and CycT1, expressed in insect cells and purified by Ni-NTA affinity chromatography, were purchase from Invitrogen (Cat. No PV4131). As substrate for the kinase reaction biotinylated peptide biotin-Ttds-[…] (C-terminus in amid form) was used which can be purchased e.g. form the company JERINI peptide technologies (Berlin, Germany). For the assay 50 nl of a 100 fold concentrated solution of the test compound in DMSO was pipetted into a black low volume 384 well microtiter plate (Greiner Bio-One, Frickenhausen, Germany), 2 μl of a solution of CDK9/CycT1 in aqueous assay buffer [50 mM Tris/HCl pH 8.0, 10 mM MgCl2, 1.0 mM dithiothreitol, 0.1 mM sodium ortho-vanadate, 0.01% (v/v) Nonidet-P40 (Sigma)] were added and the mixture was incubated for 15 min at 22° C. to allow pre-binding of the test compounds to the enzyme before the start of the kinase reaction. Then the kinase reaction was started by the addition of 3 μl of a solution of adenosine-tri-phosphate (ATP, 3.3 mM=>final conc. in the 5 μl assay volume is 2 mM) and substrate (1.67 μM=>final conc. in the 5 μl assay volume is 1 μM) in assay buffer and the resulting mixture was incubated for a reaction time of 25 min at 22° C.
The resulting mixture was incubated 1 h at 22° C. to allow the formation of complex between the phosphorylated biotinylated peptide and the detection reagents. Subsequently the amount of phosphorylated substrate was evaluated by measurement of the resonance energy transfer from the Eu-chelate to the streptavidine-XL. Therefore, the fluorescence emissions at 620 nm and 665 nm after excitation at 350 nm was measured in a HTRF reader, e.g. a Rubystar (BMG Labtechnologies, Offenburg, Germany) or a Viewlux (Perkin-Elmer). The ratio of the emissions at 665 nm and at 622 nm was taken as the measure for the amount of phosphorylated substrate.

[3] = test system: Caco-2, human colorectal carcinoma cells; experiment: Proliferation assay, Caco-2 (crystal violet); format: cell-based; settings: Caco-2, 4 days, read-out: Inhibition of Caco-2 cell proliferation IC50
Method: as §1

COc1cc(F)ccc1-c1cc(Nc2cc(CS(C)(=O)=NC(C)=O)ccn2)ncc1F (racemic) [Example 13, (rac)-N-{[(2-{[5-Fluoro-4-(4-fluoro-2-methoxyphenyl)pyridin-2-yl]amino}pyridin-4-yl)methyl](methyl)oxido-λ^6-sulfanylidene}acetamide]
IC50 ([1]; Homo sapiens, NCI-H460, 96 h): 110 nM
IC50 [2]: 1 nM
IC50 ([3]; Homo sapiens, Caco-2, 96 h): 120 nM

CCOc1cc(F)ccc1-c1cc(Nc2cc(CS(C)(=N)=O)cc(F)n2)ncc1F (single isomer, unassigned; (-)) [Example 29, (−)-4-(2-Ethoxy-4-fluorophenyl)-5-fluoro-N-{6-fluoro-4-[(S-methylsulfonimidoyl)methyl]pyridin-2-yl}pyridin-2-amine]
IC50 [1]: 150 nM
IC50 [2]: 4 nM
IC50 [3]: 100 nM

COc1cc(F)ccc1-c1cc(Nc2cc(CS(C)(=N)=O)cc(F)n2)ncc1F (racemic) [Example 17, (rac)-5-Fluoro-4-(4-fluoro-2-methoxyphenyl)-N-{6-fluoro-4-[(S-methylsulfonimidoyl)methyl]pyridin-2-yl}pyridin-2-amine]
IC50 ([1]; Homo sapiens, NCI-H460, 96 h): 45 nM
IC50 [2]: 1.8 nM
IC50 ([3]; Homo sapiens, Caco-2, 96 h): 57 nM

COc1cc(F)ccc1-c1cc(Nc2cc(CS(C)(=O)=NC(=O)C(F)(F)F)cc(C(F)(F)F)n2)ncc1F (single isomer, unassigned; (-)) [Example 25, (−)-2,2,2-Trifluoro-N-[{[2-{[5-fluoro-4-(4-fluoro-2-methoxyphenyl)pyridin-2-yl]amino}-6-(trifluoromethyl)-pyridin-4-yl]methyl}(methyl)oxido-λ^6-sulfanylidene]acetamide]
IC50 [1]: 36 nM
IC50 [2]: 13 nM
IC50 [3]: 45 nM

COc1cc(F)ccc1-c1cc(Nc2cc(CS(C)(=N)=O)cc(Cl)n2)ncc1F (racemic) [Example 7, (rac)-N-{6-Chloro-4-[(S-methylsulfonimidoyl)methyl]pyridin-2-yl}-5-fluoro-4-(4-fluoro-2-methoxyphenyl)pyridin-2-amine]
IC50 ([1]; Homo sapiens, NCI-H460, 96 h): 47 nM
IC50 [2]: 2 nM
IC50 ([3]; Homo sapiens, Caco-2, 96 h): 41 nM

COc1cc(F)ccc1-c1cc(Nc2cc(CS(C)(=O)=NC#N)ccn2)ncc1F (single isomer, unassigned) [Example 10, {[(2-{[5-Fluoro-4-(4-fluoro-2-methoxyphenyl)pyridin-2-yl]amino}pyridin-4-yl)methyl](methyl)oxido-λ^6-sulfanylidene}cyanamide]
IC50 ([1]; Homo sapiens, NCI-H460, 96 h): 39 nM
IC50 [2]: 1 nM
IC50 ([3]; Homo sapiens, Caco-2, 96 h): 38 nM

COc1cc(F)ccc1-c1cc(Nc2cc(CS(C)(=N)=O)cc(C)n2)ncc1F (racemic) [Example 4, (rac)-5-Fluoro-4-(4-fluoro-2-methoxyphenyl)-N-{6-methyl-4-[(S-methylsulfonimidoyl)methyl]pyridin-2-yl}pyridin-2-amine]
IC50 ([1]; Homo sapiens, NCI-H460, 96 h): 97 nM
IC50 [2]: 2 nM
IC50 ([3]; Homo sapiens, Caco-2, 96 h): 68 nM

From patent publication US9650340B2, “5-fluoro-N-(pyridin-2-yl)pyridin-2-amine derivatives containing a sulfoximine group” (BAYER PHARMA AKTIENGESELLSCHAFT, priority 2012, dated 2017)
